Measured values: ChEMBL document CHEMBL5331131, “Discovery of Acyl-Indole Derivatives as Pan-Serotype Dengue Virus NS4B Inhibitors” (J Med Chem, 2023)

Columns and labels:
[1] = tested on: dengue virus type 2; experiment: Antiviral activity against DENV-2 16681 expressing eGFP infected in african green monkey Vero cells incubated with cells for 24 hrs followed by viral infection measured after 3 days by laser microscopic analysis; format: functional, organism-based
[2] = tested on: dengue virus type 4; experiment: Antiviral activity against DENV-4 H241 infected in african green monkey Vero cells incubated for 24 hrs measured after 3 days post infection; format: functional, organism-based; conditions: Dengue virus, H241, Vero
[3] = tested on: dengue virus type 2; experiment: Antiviral activity against DENV-2 16681 infected in african green monkey Vero cells incubated for 24 hrs measured after 3 days post infection; format: functional, organism-based; conditions: Dengue virus, 16681, Vero
[4] = Cytotoxicity against african green monkey Vero cells by ATPlite cell viability luminescence assay; format: toxicity, cell-based; conditions: chlorocebus sabaeus
[5] = Microsomal stability in rat liver microsomes assessed as intrinsic clearance preincubated for 5 mins followed by NADPH addition measured upto 60 mins by LC-MS/MS analysis; format: ADME, Microsome; conditions: time < 65 min, read-out: CLH
[6] = Microsomal stability in mouse liver microsomes assessed as intrinsic clearance preincubated for 5 mins followed by NADPH addition measured upto 60 mins by LC-MS/MS analysis; format: ADME, Microsome; conditions: time < 65 min, read-out: CLH
[7] = Microsomal stability in human liver microsomes assessed as intrinsic clearance preincubated for 5 mins followed by NADPH addition measured upto 60 mins by LC-MS/MS analysis; format: ADME, Microsome; conditions: time < 65 min, read-out: CLH

## COc1cc(NC(C(=O)c2c[nH]c3cc(F)ccc23)c2ccc(F)cc2)cc(OCCO)c1 (stereo in doubt; (-)-7b)
[1]; vero
  EC50: 93 nM

## COc1cc(NC(C(=O)c2c[nH]c3cc(F)ccc23)c2ccc(Cl)cc2OC)cc(OCCO)c1 (stereo in doubt; 24)
[2]
  EC50: 360 nM
[3]
  EC50: 1 nM

## COc1cc(NC(C(=O)c2c[nH]c3cc(Cl)ccc23)c2ccc(F)cc2OC)cc(OCCO)c1 (stereo not drawn)
[4]
  CC50: 5900 nM
[5]
  microsomal CLint: 24 µL/min/mg
[6]
  microsomal CLint: < 8 µL/min/mg
[1]; Dengue virus, 16681, Vero
  EC50: 2 nM
[7]
  microsomal CLint: < 8 µL/min/mg

## COc1cc(NC(C(=O)c2c[nH]c3ccc(F)cc23)c2ccc(F)cc2)cc(OCCO)c1 (stereo not drawn)
[4]
  CC50: 14000 nM
[5]
  microsomal CLint: 10 µL/min/mg
[6]
  microsomal CLint: 50 µL/min/mg
[1]; Dengue virus, 16681, Vero
  EC50: 16 nM
[7]
  microsomal CLint: < 8 µL/min/mg

## COc1cc(NC(C(=O)c2c[nH]c3cc(F)ccc23)c2ccc(F)cc2Cl)cc(OCCO)c1 (single isomer, unassigned; (-))
[4]
  CC50: 8200 nM
[1]; Dengue virus, 16681, Vero
  EC50: 6 nM

## COc1cc(NC(C(=O)c2c[nH]c3cc(OC)c(F)cc23)c2ccc(F)cc2OC)cc(OCCO)c1 (single isomer, unassigned; (+))
[4]
  CC50: > 8600 nM
[5]
  microsomal CLint: < 8 µL/min/mg
[6]
  microsomal CLint: < 8 µL/min/mg
[1]; Dengue virus, 16681, Vero
  EC50: 5 nM
[7]
  microsomal CLint: < 8 µL/min/mg

## COc1cc(NC(C(=O)c2c[nH]c3cc(F)ccc23)c2ccc(OC(F)(F)F)cc2OC)cc(OCCO)c1 (stereo not drawn)
[2]
  EC50: 3430 nM
[3]
  EC50: 22 nM

## COc1cc(NC(C(=O)c2c[nH]c3c(Cl)c(OC)ccc23)c2ccc(F)cc2OC)cc(OCCO)c1 (stereo not drawn)
[4]
  CC50: 8600 nM
[5]
  microsomal CLint: 37 µL/min/mg
[6]
  microsomal CLint: 9 µL/min/mg
[1]; Dengue virus, 16681, Vero
  EC50: 1 nM
[7]
  microsomal CLint: < 8 µL/min/mg

## COc1cc(NC(C(=O)c2c[nH]c3cc(F)ccc23)c2ccc(F)cc2OC(F)(F)F)cc(OCCO)c1 (stereo not drawn)
[4]
  CC50: 7800 nM
[1]; Dengue virus, 16681, Vero
  EC50: 170 nM

## COc1cc(NC(C(=O)c2c[nH]c3cc(F)ccc23)c2ccc(F)cc2F)cc(OCCO)c1 (stereo not drawn)
[4]
  CC50: 13000 nM
[1]; Dengue virus, 16681, Vero
  EC50: 9 nM

## COc1cc(NC(C(=O)c2c[nH]c3cc(F)c(F)cc23)c2ccc(F)cc2OC)cc(OCCO)c1 (single isomer, unassigned; (+))
[4]
  CC50: 6900 nM
[5]
  microsomal CLint: 44 µL/min/mg
[6]
  microsomal CLint: 10 µL/min/mg
[1]; Dengue virus, 16681, Vero
  EC50: 3 nM
[7]
  microsomal CLint: < 8 µL/min/mg

## COc1cc(NC(C(=O)c2c[nH]c3c(C)c(OC)ccc23)c2ccc(F)cc2OC)cc(OCCO)c1 (single isomer, unassigned; (+))
[4]
  CC50: 8900 nM
[5]
  microsomal CLint: 17 µL/min/mg
[6]
  microsomal CLint: < 8 µL/min/mg
[1]; Dengue virus, 16681, Vero
  EC50: 1 nM
[7]
  microsomal CLint: < 8 µL/min/mg

## COc1cc(NC(C(=O)c2c[nH]c3c(F)cc(C)cc23)c2ccc(F)cc2OC)cc(OCCO)c1 (single isomer, unassigned; (+))
[4]
  CC50: 5500 nM
[5]
  microsomal CLint: 13 µL/min/mg
[6]
  microsomal CLint: 10 µL/min/mg
[1]; Dengue virus, 16681, Vero
  EC50: 5 nM
[7]
  microsomal CLint: 10 µL/min/mg

## COc1cc(NC(C(=O)c2c[nH]c3c(F)c(F)ccc23)c2ccc(F)cc2OC)cc(OCCO)c1 (stereo not drawn)
[4]
  CC50: 6600 nM
[5]
  microsomal CLint: 8 µL/min/mg
[6]
  microsomal CLint: 8 µL/min/mg
[1]; Dengue virus, 16681, Vero
  EC50: 3 nM
[7]
  microsomal CLint: < 8 µL/min/mg

## COc1cc(NC(C(=O)c2c[nH]c3cc(F)ccc23)c2ccc(C)cc2OC)cc(OCCO)c1 (stereo not drawn)
[2]
  EC50: 960 nM
[3]
  EC50: 7 nM

## COc1cc(NC(C(=O)c2c[nH]c3cc(F)ccc23)c2ccc(F)cc2)cc(OCCO)c1 (single isomer, unassigned; (+))
[1]; vero
  EC50: 11 nM

## COc1cc(NC(C(=O)c2c[nH]c3cc(F)ccc23)c2ccc(F)cc2OCCO)cc(OCCO)c1 (stereo not drawn)
[4]
  CC50: 14000 nM
[1]; Dengue virus, 16681, Vero
  EC50: 41 nM

## COc1cc(NC(C(=O)c2c[nH]c3cc(F)ccc23)c2ccc(C(F)(F)F)cc2OC)cc(OCCO)c1 (stereo not drawn)
[2]
  EC50: 770 nM
[3]
  EC50: 3 nM
